Patent US7524669B2 (priority 2002, dated 2009)
Where two headings read alike, the source gives them in different places.

Legend:
[1] = system: S. cerevisiae HD9 (fps1Δ acr3Δ ycf1Δ); assay type: cell-based, Saccharomyces cerevisiae; details: strain HD9 (FPS1 deleted), 5 μM metalloid, FIG. 4
AQP9 [2] = target: T1, AQP9 (Rattus norvegicus, UniProt P56627); assay type: cell-based, Saccharomyces cerevisiae
[3] = system: S. cerevisiae HD9 (fps1Δ acr3Δ ycf1Δ); details: HD9 vs MG102 (acr3Δ ycf1Δ), FIG. 3
AQP9 [4] = target: T1, AQP9; details: for effect of AQP9 expression on resistance/sensitivity of strain HD9: HD9 pAQP9, galactose induced, FIG. 3
AQP7 = details: HD9 pAQP7
[5] = system: S. cerevisiae strains W303, W303 pYCF1, MG100, MG100 pYCF1; assay: Metal ion resistance assay (growth in liquid SD medium), Example 1
[6] = system: S. cerevisiae strains W303, W303 pYCF1, MG100, MG100 pYCF1; assay: Arsenite transport (accumulation) assay in intact cells, Example 1; assay type: cell-based, Saccharomyces cerevisiae; details: FIG. 2

T1 sequence (P56627 whole entry): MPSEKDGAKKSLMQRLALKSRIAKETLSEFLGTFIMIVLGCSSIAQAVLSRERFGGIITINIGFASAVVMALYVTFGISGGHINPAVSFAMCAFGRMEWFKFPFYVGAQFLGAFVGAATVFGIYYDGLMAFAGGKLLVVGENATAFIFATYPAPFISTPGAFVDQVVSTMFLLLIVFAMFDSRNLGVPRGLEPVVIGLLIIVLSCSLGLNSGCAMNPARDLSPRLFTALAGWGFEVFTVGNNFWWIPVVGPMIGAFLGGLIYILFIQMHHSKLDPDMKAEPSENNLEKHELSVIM

For `O.O.O.O=C([O-])[C@H]([O-])[C@@H]([O-])C(=O)[O-].O=C([O-])[C@H]([O-])[C@@H]([O-])C(=O)[O-].[K+].[K+].[Sb+3].[Sb+3]` [antimonite, potassium antimonyl tartrate], the “transport of radioactive metalloid into cells” value (shortened to “transport”) [1] was “low rates of transport”, the “transport” value (AQP9 [2]) was “facilitates transport” and the “resistance of strain HD9 compared to strain MG102 (growth)” value [3] was “relatively resistant”. For the same molecule, the “effect of AQP9 expression on resistance/sensitivity of strain HD9” value (AQP9 [4]) was “reversed” and the “effect of AQP7 on a plasmid on resistance of strain HD9” value (AQP7) was “no effect on resistance”.

In the case of `O=[As]O` [arsenite, sodium arsenite], the “transport” value [1] is reported as “reduced”, the “transport” value (AQP9 [2]; HD9 expressing AQP9, 5 μM metalloid, FIG. 4) is reported as “accumulated more ^73As(OH)3 than the parental strain MG102” and the “arsenite sensitivity (growth)” value ([5]; strain MG100 (ACR3Δ), FIG. 1) is reported as “extremely arsenic sensitive”. The “arsenite resistance (growth)” value ([5]; strain MG100 pYCF1, FIG. 1) was “restores arsenite resistance”, the “arsenite resistance (growth)” value ([5]; strain W303 (wild type ACR3), FIG. 1) was “resistant to higher concentrations” and the “arsenite resistance (growth)” value ([5]; strain W303 pYCF1, Ycf1p expressed on a plasmid, FIG. 1) was “no effect on resistance”. The “resistance of strain HD9 compared to strain MG102 (growth)” value [3] was “resistant”, the “accumulation of 73As(OH)3 in intact cells” value (from here on “accumulation”) ([6]; strain MG100, 1.0 μM arsenite) was “accumulates more ^73As(III) than the wild type” and the “accumulation” value ([6]; strain MG100 pYCF1, 1.0 μM arsenite) was “accumulate much higher amounts of arsenite”. The “accumulation” value ([6]; strain W303, 1.0 μM arsenite) was “accumulate the least arsenic”, the “accumulation” value ([6]; strain W303 pYCF1, 1.0 μM arsenite) was “increases the amount of radioactive arsenite accumulated” and the “effect of AQP9 expression on resistance/sensitivity of strain HD9” value (AQP9 [4]) was “reversed”. For the same molecule, the “effect of AQP7 on a plasmid on resistance of strain HD9” value (AQP7) was “no effect on resistance”.

`[Cl][Cd][Cl]` [cadmium, cadmium chloride] was tested, and the “effect of AQP9 expression on resistance/sensitivity of strain HD9” value (AQP9 [4]) was “no effect on sensitivity”.

With `OCC(O)CO` [glycerol] the “inhibition of 73As(OH)3 uptake by glycerol” value (AQP9 [2]) was “reduced the uptake” and the “effect of glycerol on AQP9-related arsenite sensitivity in growth assays” value (AQP9 [4]) was “small reversal of the AQP9-related arsenite sensitivity”.

With sodium arsenate the “effect of AQP9 expression on resistance/sensitivity of strain HD9” value (AQP9 [4]) was “no effect on sensitivity”.
